In patent US8658573B2, “Photo-generated carbohydrate arrays and the rapid identification of pathogen-specific antigens and antibodies” (priority 2006, dated 2014):

Tested on: rabbit anti-B. anthracis spore polyclonal IgG antibodies
Type: binding

## COC(=O)CCCCCO[C@@H]1O[C@@H](C)[C@H](O)[C@@H](O)[C@H]1O[C@@H]1O[C@@H](C)[C@H](O)[C@@H](O[C@@H]2O[C@H](C)[C@@H](NC(=O)CC(C)(C)O)[C@H](O)[C@H]2OC)[C@H]1O [Id# 3, 5-(Methoxycarbonyl)-pentyl 4-(3-hydroxy-3-methylbutanamido)-2-O-methyl-4,6-dideoxy-β-D-glucopyranosyl-(1→3)-α-L-rhamnopyranosyl-(1→2)-α-L-rhamnopyranoside]
  recognition of surface-bound carbohydrate by the antibody (FIG. 2A/2B): recognized by the antibody

## COC(=O)CCCCCO[C@H]1O[C@@H](C)[C@H](O)[C@@H](O)[C@H]1O[C@@H]1O[C@@H](C)[C@H](O)[C@@H](O[C@@H]2O[C@@H](C)[C@H](O)[C@@H](O[C@@H]3O[C@H](C)[C@@H](NC(=O)CC(C)(C)O)[C@H](O)[C@H]3OC)[C@H]2O)[C@H]1O [Id# 4, 5-(Methoxycarbonyl)-pentyl 4-(3-hydroxy-3-methylbutanamido)-2-O-methyl-4,6-dideoxy-β-D-glucopyranosyl-(1→3)-α-L-rhamnopyranoyl-(1→3)-α-L-rhamnopyranosyl-(1→2)-β-L-rhamnopyranoside]
  recognition of surface-bound carbohydrate by the antibody (FIG. 2A/2B): recognized by the antibody

## COC(=O)CCCCCO[C@@H]1O[C@@H](C)[C@H](O)[C@@H](O)[C@H]1O[C@@H]1O[C@@H](C)[C@H](O)[C@@H](O[C@@H]2O[C@@H](C)[C@H](O)[C@@H](O[C@@H]3O[C@H](C)[C@@H](NC(=O)CC(C)(C)O)[C@H](O)[C@H]3OC)[C@H]2O)[C@H]1O [Id# 5, 5-(Methoxycarbonyl)-pentyl 4-(3-hydroxy-3-methylbutanamido)-2-O-methyl-4,6-dideoxy-β-D-glucopyranosyl-(1→3)-α-L-rhamnopyranoyl-(1→3)-α-L-rhamnopyranosyl-(1→2)-α-L-rhamnopyranoside]
  recognition of surface-bound carbohydrate by the antibody (FIG. 2A/2B): recognized by the antibody

## COC(=O)CCCCCO[C@@H]1O[C@H](C)[C@@H](NC(=O)CC(C)(C)O)[C@H](O)[C@H]1OC [compound 1]
  IgG signal detected by carbohydrate arrays (n = 3), Mean: 1.44

## COC(=O)CCCCCO[C@@H]1O[C@@H](C)[C@H](O)[C@@H](O[C@@H]2O[C@H](C)[C@@H](NC(=O)CC(C)(C)O)[C@H](O)[C@H]2OC)[C@H]1O [compound 2]
  IgG signal detected by carbohydrate arrays (n = 3), Mean: 1.65

## COC(=O)CCCCCO[C@@H]1O[C@@H](C)[C@H](O)[C@@H](O)[C@H]1O[C@@H]1O[C@@H](C)[C@H](O)[C@@H](O[C@@H]2O[C@H](C)[C@@H](NC(=O)CC(C)(C)O)[C@H](O)[C@H]2OC)[C@H]1O [compound 3]
  IgG signal detected by carbohydrate arrays (n = 3), Mean: 2.73

## COC(=O)CCCCCO[C@H]1O[C@@H](C)[C@H](O)[C@@H](O)[C@H]1O[C@@H]1O[C@@H](C)[C@H](O)[C@@H](O[C@@H]2O[C@@H](C)[C@H](O)[C@@H](O[C@@H]3O[C@H](C)[C@@H](NC(=O)CC(C)(C)O)[C@H](O)[C@H]3OC)[C@H]2O)[C@H]1O [compound 4]
  IgG signal detected by carbohydrate arrays (n = 3), Mean: 5.16

## COC(=O)CCCCCO[C@@H]1O[C@@H](C)[C@H](O)[C@@H](O)[C@H]1O[C@@H]1O[C@@H](C)[C@H](O)[C@@H](O[C@@H]2O[C@@H](C)[C@H](O)[C@@H](O[C@@H]3O[C@H](C)[C@@H](NC(=O)CC(C)(C)O)[C@H](O)[C@H]3OC)[C@H]2O)[C@H]1O [compound 5]
  IgG signal detected by carbohydrate arrays (n = 3), Mean: 5.19

## CC(=O)N[C@@H](C=O)[C@@H](O)[C@@H](O)[C@H](O)CO [compound 11]
  IgG signal detected by carbohydrate arrays (n = 3), Mean: 1.03

## COC(=O)CCCCCO[C@@H]1O[C@@H](C)[C@H](O)[C@@H](O)[C@H]1O [compound 14]
  IgG signal detected by carbohydrate arrays (n = 3), Mean: 0.97

## COC(=O)CCCCCO[C@H]1O[C@@H](C)[C@H](O)[C@@H](O)[C@H]1O [compound 15]
  IgG signal detected by carbohydrate arrays (n = 3), Mean: 0.95

## COC(=O)CCCCCO[C@@H]1O[C@@H](C)[C@H](O)[C@@H](O[C@@H]2O[C@@H](C)[C@H](O)[C@@H](O)[C@H]2O)[C@H]1O [compound 16]
  IgG signal detected by carbohydrate arrays (n = 3), Mean: 1.00

## COC(=O)CCCCCO[C@@H]1O[C@@H](C)[C@H](O)[C@@H](O)[C@H]1O[C@@H]1O[C@@H](C)[C@H](O)[C@@H](O[C@@H]2O[C@@H](C)[C@H](O)[C@@H](O)[C@H]2O)[C@H]1O [compound 17]
  IgG signal detected by carbohydrate arrays (n = 3), Mean: 0.98

## COC(=O)CCCCCO[C@@H]1O[C@@H](C)[C@H](O)[C@@H](O)[C@H]1O[C@@H]1O[C@@H](C)[C@H](O)[C@@H](O)[C@H]1O [compound 18]
  IgG signal detected by carbohydrate arrays (n = 3), Mean: 1.26

## COC(=O)CCCCCO[C@H]1O[C@@H](C)[C@H](O)[C@@H](O)[C@H]1O[C@@H]1O[C@@H](C)[C@H](O)[C@@H](O)[C@H]1O [compound 19]
  IgG signal detected by carbohydrate arrays (n = 3), Mean: 0.98

## COC(=O)CCCCCO[C@H]1O[C@@H](C)[C@H](O)[C@@H](O)[C@H]1O[C@@H]1O[C@@H](C)[C@H](O)[C@@H](O[C@@H]2O[C@@H](C)[C@H](O)[C@@H](O)[C@H]2O)[C@H]1O [compound 20]
  IgG signal detected by carbohydrate arrays (n = 3), Mean: 0.95

## COC1O[C@H](CO)[C@H](O)[C@H](O)[C@H]1O[C@@H]1O[C@@H](C)[C@H](O)[C@@H](O)[C@H]1O (some centres unmarked) [compound 21]
  IgG signal detected by carbohydrate arrays (n = 3), Mean: 1.08

## CO[C@H]1O[C@H](CO)[C@H](O)[C@H](O)[C@H]1O[C@@H]1O[C@@H](C)[C@H](O)[C@@H](O[C@@H]2O[C@@H](C)[C@H](O)[C@@H](O[C@H]3O[C@H](CO)[C@@H](O)[C@H](O)[C@H]3NC(C)=O)[C@H]2O)[C@H]1O [compound 22]
  IgG signal detected by carbohydrate arrays (n = 3), Mean: 0.95

## CO[C@H]1O[C@H](CO)[C@@H](O)[C@H](O[C@H]2O[C@H](CO)[C@H](O)[C@H](O)[C@H]2O[C@@H]2O[C@@H](C)[C@H](O)[C@@H](O)[C@H]2O)[C@H]1NC(C)=O [compound 23]
  IgG signal detected by carbohydrate arrays (n = 3), Mean: 1.01

## CO[C@@H]1O[C@@H](C)[C@H](O)[C@@H](O[C@@H]2O[C@@H](C)[C@H](O)[C@@H](O)[C@H]2O)[C@H]1O [compound 24]
  IgG signal detected by carbohydrate arrays (n = 3), Mean: 1.02
